Experimental findings from PubChem BioAssay (NCI) are described below.

Among the test systems are 786-0 renal; SF-539 CNS; HT29 colon; SN12C renal; LOX IMVI melanoma; UO-31 renal; NCI-H226 lung; NCI/ADR-RES ovarian; SK-OV-3 ovarian; NCI-H460 lung.
Common to all, as to test: NCI-60 cell line screen, 48 h

Values joined by “and” are separate entries in the source; they are usually repeats but may differ in a detail not shown here. Equal values may be shown once.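 1) Cells in 96-well plates. 2) Compound, 48 h, 5 concentrations. 3) Linear interpolation between surrounding doses. 4) Unreached endpoint = highest concentration. Here, GI50 denotes the concentration required for 50% inhibition of growth. The concentration for full growth arrest is given as TGI.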

Regarding `Cc1cc(CCl)c(C)cc1CCl`, the GI50 was 2.19 µM with 786-0 renal; 1.02 µM with SF-539 CNS; 1.44 µM with HT29 colon; 0.605 µM with SN12C renal; 0.883 µM with LOX IMVI melanoma; 1.53 µM in the assay on UO-31 renal. In addition, the GI50 with NCI-H226 lung was 2.89 µM; with NCI/ADR-RES ovarian it was 2.07 µM; in the assay on SK-OV-3 ovarian it was 4.92 µM; with NCI-H460 lung it was 0.12 µM. Besides, the TGI in the assay with SF-539 CNS was 4.26 µM; with HT29 colon, 3.68 µM; in the assay with SN12C renal it was 13.6 µM; in the assay with LOX IMVI melanoma it was 3.79 µM; in the assay on UO-31 renal, 3.71 µM; with NCI-H226 lung, 16 µM. In addition, the results for the TGI in the assay with NCI/ADR-RES ovarian, in the assay on SK-OV-3 ovarian and with NCI-H460 lung were 7.77 µM, 23 µM and 1.43 µM, respectively.

For the compound `CC(Oc1ccc(Oc2cnc3ccc(Cl)cc3n2)cc1)C(=O)O` (centres undefined), the TGI in the assay with 786-0 renal, in the assay on SF-539 CNS, in the assay on HT29 colon, in the assay with SN12C renal, in the assay on LOX IMVI melanoma and with UO-31 renal was more than 100 µM in each case. Also, the TGI in the assay on NCI-H226 lung is > 100 µM and 33.2 µM; in the assay on NCI/ADR-RES ovarian, more than 100 µM; in the assay on SK-OV-3 ovarian, more than 100 µM; with NCI-H460 lung, more than 100 µM.

As for `O=C(CC1(O)C(=O)Nc2ccc(F)cc21)c1ccc(C(=O)NCC2CCC3(CC2)OOC2(CCCCC2)OO3)cc1` (centres undefined), the GI50 with 786-0 renal is 2 µM; in the assay with SF-539 CNS, 3.64 µM; with HT29 colon, 11.7 µM; with SN12C renal it was 10.8 µM; in the assay with LOX IMVI melanoma, 0.309 µM; with UO-31 renal, 0.858 µM. Also, the GI50 in the assay on NCI-H226 lung is 10.3 µM; in the assay with NCI/ADR-RES ovarian it was 15.9 µM; in the assay on SK-OV-3 ovarian it was 14.1 µM; in the assay on NCI-H460 lung, 2.52 µM. Also, the TGI in the assay with 786-0 renal amounted to 3.81 µM; in the assay on SF-539 CNS, 14.8 µM; in the assay with HT29 colon, 28 µM; in the assay with SN12C renal, 33.6 µM; in the assay with LOX IMVI melanoma, 1.27 µM; in the assay with UO-31 renal it was 2.28 µM. In addition, the TGI in the assay with NCI-H226 lung was found to be 32.2 µM; in the assay with NCI/ADR-RES ovarian, 48.3 µM; in the assay with SK-OV-3 ovarian, 31.9 µM; in the assay on NCI-H460 lung, 6.47 µM.

`CCCCCCCCCc1ccc(OCCOCCOCCOCCOCCOCCOCCOCCOCCO)cc1`: the GI50 in the assay with 786-0 renal was 1.02 µM; in the assay on SF-539 CNS it was 0.949 µM; with HT29 colon, 0.685 µM; in the assay with SN12C renal it was 0.61 µM; with LOX IMVI melanoma, 0.23 µM; in the assay with UO-31 renal it was 0.733 µM. The GI50 in the assay with NCI-H226 lung is 0.561 µM; in the assay on NCI/ADR-RES ovarian it was 0.268 µM; in the assay with SK-OV-3 ovarian, 0.991 µM; with NCI-H460 lung, 0.301 µM. In addition, the TGI in the assay on 786-0 renal is 4.12 µM; with SF-539 CNS it was 2.67 µM; in the assay on HT29 colon, 1.98 µM; in the assay on SN12C renal, 1.59 µM; in the assay on LOX IMVI melanoma, 0.996 µM; with UO-31 renal it was 4.82 µM. For the same compound, the TGI is 1.77 µM with NCI-H226 lung, 3.94 µM in the assay with NCI/ADR-RES ovarian, 2.45 µM with SK-OV-3 ovarian and 1.65 µM with NCI-H460 lung.

In the case of `CC(NC(=O)Cc1ccc(C(F)(F)P(=O)(OCc2ccc([N+](=O)[O-])o2)N(C)CCCCCl)cc1)c1ccc(OCC2CCCCC2)c(C(N)=O)c1` (centres undefined), the GI50 in the assay on 786-0 renal was 1.77 µM; in the assay with SF-539 CNS, 6.33 µM; with HT29 colon, 5.8 µM; with SN12C renal it was 5.35 µM; with LOX IMVI melanoma, 2.06 µM; in the assay on UO-31 renal, 7.74 µM. Moreover, the GI50 in the assay with NCI-H226 lung was 5.52 µM; with NCI/ADR-RES ovarian, 6.51 µM; in the assay with SK-OV-3 ovarian, 19.3 µM; in the assay on NCI-H460 lung, 8.26 µM. The TGI worked out at 3.97 µM with 786-0 renal; 13.4 µM with SF-539 CNS; 21.2 µM with HT29 colon; 10.9 µM in the assay with SN12C renal; 5.87 µM in the assay with LOX IMVI melanoma; 21.9 µM in the assay on UO-31 renal. In addition, the TGI is 15.1 µM in the assay on NCI-H226 lung, more than 93.4 µM in the assay on NCI/ADR-RES ovarian, 43.5 µM with SK-OV-3 ovarian and 26.2 µM in the assay with NCI-H460 lung.

For `CN(Cc1ccc(F)cc1)c1ccc(CO)c(Cl)c1`, the GI50 is 10.5 µM in the assay on 786-0 renal; 40.7 µM with SF-539 CNS; 8.38 µM with HT29 colon; 23.2 µM in the assay on SN12C renal; 22.9 µM with LOX IMVI melanoma; 7.53 µM in the assay with UO-31 renal. Also, the GI50 in the assay on NCI-H226 lung is 0.126 µM; with NCI/ADR-RES ovarian, 17.7 µM; in the assay on SK-OV-3 ovarian, 12.2 µM; with NCI-H460 lung it was 1.41 µM. The TGI is 30.4 µM with 786-0 renal; more than 100 µM with SF-539 CNS; 67.1 µM with HT29 colon; more than 100 µM in the assay on SN12C renal; more than 68.9 µM in the assay on LOX IMVI melanoma; more than 65.1 µM with UO-31 renal. Moreover, the TGI in the assay with NCI-H226 lung is 0.278 µM; with NCI/ADR-RES ovarian, more than 64.3 µM; in the assay with SK-OV-3 ovarian, 70.9 µM; with NCI-H460 lung, 13.9 µM.

Take `COc1ccc(-c2c(C#N)c(N)nc(N3CCOCC3)c2C#N)cc1`: the GI50 was 20.7 µM in the assay on 786-0 renal; 32.1 µM with SF-539 CNS; 26.6 µM in the assay with HT29 colon; 25.7 µM in the assay with SN12C renal; 14.4 µM with LOX IMVI melanoma; 13.1 µM in the assay with UO-31 renal. The GI50 is 26.3 µM in the assay on NCI-H226 lung, 20.6 µM in the assay on NCI/ADR-RES ovarian, 4.99 µM with SK-OV-3 ovarian and 29.9 µM in the assay with NCI-H460 lung. The TGI in the assay on 786-0 renal is 76.6 µM; in the assay on SF-539 CNS, more than 100 µM; in the assay on HT29 colon, more than 100 µM; in the assay with SN12C renal, more than 100 µM; in the assay on LOX IMVI melanoma it was 36.9 µM; with UO-31 renal, 49.2 µM. The TGI in the assay with NCI-H226 lung is more than 100 µM; in the assay on NCI/ADR-RES ovarian it was 87.3 µM; with SK-OV-3 ovarian, 27.3 µM; with NCI-H460 lung, more than 100 µM.

For `CCCC1(CN2c3ccccc3Sc3ccc(Cl)cc32)CCN(CC)C1` (centres undefined), the GI50 is 1.89 µM with 786-0 renal; 1.85 µM with SF-539 CNS; 1.88 µM in the assay on HT29 colon; 3.03 µM with SN12C renal; 1.67 µM with LOX IMVI melanoma; 1.51 µM in the assay with UO-31 renal. Also, the GI50 with NCI-H226 lung was 1.74 µM; with NCI/ADR-RES ovarian, 1.68 µM; in the assay on SK-OV-3 ovarian, 1.77 µM; in the assay with NCI-H460 lung, 1.94 µM. Moreover, the TGI in the assay with 786-0 renal was 3.52 µM; with SF-539 CNS, 3.61 µM; with HT29 colon, 3.75 µM; in the assay on SN12C renal, 8.74 µM; in the assay on LOX IMVI melanoma, 3.37 µM; with UO-31 renal, 2.97 µM. Further, the TGI in the assay with NCI-H226 lung came out at 3.76 µM; with NCI/ADR-RES ovarian, 3.36 µM; with SK-OV-3 ovarian, 3.45 µM; in the assay with NCI-H460 lung, 3.67 µM.
